Test results published in US20110231103A1, “METHODS FOR DETERMINING MOLECULAR PHARMACOLOGY USING LABEL-FREE INTEGRATIVE PHARMACOLOGY” (priority 2010, published 2011).

Assays:
[1] = test system: A431 cells; experiment: DMR primary profiles of known GPCR agonists in A431 cells (receptor panning, cluster analysis); format: cell-based, human; conditions: each agonist at 10 micromolar, max-min of 40 picometer cutoff
Protocol: (§1) Cells were typically grown using ˜1 to 2×10^4 cells per well at passage 3 to 15 suspended in 50 μl of the corresponding culture medium in the biosensor microplate, and were cultured at 37° C. under air/5% CO2 for ˜1 day. Except for A431 cells which underwent one day (at least 14 hours) culture followed by one day (at least 14 hours) starvation in serum free medium, all other cells were directly assayed without starvation. The confluency for all cells at the time of assays was ˜95% to 100%.
An Epic® beta version wavelength interrogation system (Corning Inc., Corning, N.Y.) was used for whole cell sensing. This system consists of a temperature-control unit, an optical detection unit, and an on-board liquid handling unit with robotics. The detection unit is centered on integrated fiber optics, and enables kinetic measures of cellular responses with a time interval of ˜15 sec.
(§2) For biosensor cellular assays, molecule solutions were made by diluting the stored concentrated solutions with the HBSS (1× Hanks balanced salt solution, plus 20 mM Hepes, pH 7.1), and transferred into a 384well polypropylene molecule storage plate to prepare a molecule source plate. Both molecule and marker source plates were made separately when a two-step assay was performed. In parallel, the cells were washed twice with the HBSS and maintained in 30 μl of the HBSS to prepare a cell assay plate. Both the cell assay plate and the molecule and marker source plate(s) were then incubated in the hotel of the reader system. After ˜1 hr of incubation the baseline wavelengths of all biosensors in the cell assay microplate were recorded and normalized to zero. Afterwards, a 2 to 10 minute continuous recording was carried out to establish a baseline, and to ensure that the cells reached a steady state. Cellular responses were then triggered by pipetting 10 μl of the marker solutions into the cell assay plate using the on-board liquid handler.
All studies were carried out at a controlled temperature (28° C.). At least two independent sets of experiments, each with at least three replicates, were performed. […] A typical DMR signal of cells, as measured using Epic system, is a real time kinetic response which consists a baseline pre-stimulation (often normalized to zero), and a cellular response post stimulation.
To pan endogenous G protein-coupled receptors (GPCRs) that are functional in label-free biosensor cellular assays, a library of known GPCR agonists was made. A431 cells were grown to monolayer on the Epic® 384well biosensor cell culture compatible microplates and subject to overnight starvation. After replacing the cell medium with 1×HBSS buffer and reaching equilibrium within the Epic® system, the cells were stimulated with known GPCR agonists, each at 10 micromolar. The known adenylate cyclase activator forskolin was also included as a positive control for the cAMP-PKA pathway.
Pattern recognition and pattern matching can be used to visualize their relations. However, when the numbers of molecule biosensor primary profiles increase dramatically, it becomes more difficult to use conventional pattern recognition methods, such as supervised learning, to study the relations of the molecule primary indices. Clustering analysis has been widely and successfully used in gene expression and protein network analysis which often deals with large datasets. Thus, clustering analysis and its parameters were identified herein to categorize the molecule primary indices. Both Hierarchical and k-Means clustering methods were examined. […] Here a max-min of 40 picometer was used as a cutoff to filter the original data. This heat map was generated using the real responses of each GPCR agonist at a 1-min time interval post stimulation.

[2] = test system: 15 marker/4 cell line panel (A549, A431, HT29, HepG2 cells); experiment: Biosensor modulation indices against a 15 marker/4 cell line panel, Hierarchical Euclidean cluster analysis; format: cell-based; conditions: 15 markers at EC100 in A549, A431, HT29, HepG2 cells; library of ~2000 compounds
Protocol: as §1, §2
To study the influence of molecules on a marker-induced response, a second stimulation with the marker at a fixed dose (typically at EC80 or EC 100) was applied. The resonant wavelengths of all biosensors in the microplate were normalized again to establish a second baseline, right before the second stimulation. The two stimulations were usually separated by ˜1 hr.
To further explore the potential of cluster analysis for label-free integrative pharmacology, a library of ˜2000 compounds were subject to label-free integrative pharmacology analysis against a 15 marker/4 cell line panel. The cell/marker panel consists of the A549 cell (the mitochondria KATP opener pinacidil, the TLR3 agonist poly(I:C), the protein kinase C activator PMA, the adenylate cyclase activator forskolin, the PAR2 agonist SLIGKV, and the histamine H1 receptor agonist histamine), A431 cells (the β2AR agonist epinephrine, the EGFR agonist EGF, the GPR109A agonist nicotinic acid, and the histamine H1 receptor agonist histamine), HT29 cells (the EGFR/HER2 agonist EGF, the neurotensin receptor NTS1/NTS3 agonist neurotensin, the IGF1 receptor IGF1, and the hERG activator mallotoxin), and the HepG2 cell (the TL9 agonist ODN2006). All molecules in the library were screened in four cell lines to produce a library of biosensor primary indices. In addition, all molecules in the library were also screened in the four cell lines against each respective marker at EC100 to produce a library of biosensor modulation indices. The modulation indices were generated by normalizing the marker DMR signal in the presence of a molecule to the marker DMR in the absence of a molecule. For each marker, one or two specific DMR events were used for normalization. For A549 cells, it is pinacidil (the N-DMR at 30 min; pinacidil), Poly(I:C) (the P-DMR at 50 min, poly(I:C)), PMA (the P-DMR at 50 min, PMA), SLIGKV (the P-DMR at 20 min, SLIGKV), forskolin (the P-DMR at 50 min, Forskolin), Histamine (the P-DMR at 10 min, His1; the P-DMR at 30 min, His2) (the bolded name was indicated in FIG. 6, the same is for the below). For A431 cells, it is epinephrine (the P-DMR at 50 min, Epi), nicotinic acid (the N-DMR at 3 min, NA), EGF (the P-DMR at 5 min, EGF1; the N-DMR at 40 min, EGF2), and histamine (the P-DMR at 3 min, His3).

[3] = biological target: T1, β2-AR (Homo sapiens, UniProt P07550); experiment: DMR assays of a panel of β2-AR ligands in quiescent A431 cells, multi-parameter and cluster analysis; format: cell-based; conditions: for heat map classification of β2-AR agonist pharmacology based on DMR parameters: DMR parameters normalized to the epinephrine response; for saturating concentration for the DMR signal: FIG. 7
T1 construct: All of these receptors were endogenously expressed in A431 cells, as confirmed by quantitative RT-PCR; endogenous in cells; host or cells: quiescent (serum-starved) A431 cells
Protocol: as §1, §2
Label-free receptor assays allow a greater array of changes in the receptor to be detected. […] The heat map was generated using the Euclidean hierarchical cluster analysis, after all DMR parameters were normalized to the epinephrine response.

T1 sequence (P07550 whole entry): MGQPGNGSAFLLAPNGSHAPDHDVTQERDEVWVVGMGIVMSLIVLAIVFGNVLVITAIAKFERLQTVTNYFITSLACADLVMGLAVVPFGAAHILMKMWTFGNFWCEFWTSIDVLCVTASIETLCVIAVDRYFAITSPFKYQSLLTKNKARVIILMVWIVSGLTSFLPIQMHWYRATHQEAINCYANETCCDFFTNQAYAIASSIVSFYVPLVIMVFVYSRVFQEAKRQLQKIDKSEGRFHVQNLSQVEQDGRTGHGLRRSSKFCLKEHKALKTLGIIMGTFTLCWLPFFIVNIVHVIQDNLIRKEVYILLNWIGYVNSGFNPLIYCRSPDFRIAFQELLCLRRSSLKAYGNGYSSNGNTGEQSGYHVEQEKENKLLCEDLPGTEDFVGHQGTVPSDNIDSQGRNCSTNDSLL

Row | SMILES | cluster of the agonist-induced primary DMR signal (two dimensional Hierarchical clustering, heat map) [1] | node cluster by biosensor modulation index (similarity to known anti-histamines) [2] | heat map classification of β2-AR agonist pharmacology based on DMR parameters [3] | other results
1 | O=c1ccn([C@@H]2O[C@H](COP(=O)(O)OP(=O)(O)OP(=O)(O)O)[C@@H](O)[C@H]2O)c(=O)[nH]1 [UTP] | belong to the same cluster | – | – | –
2 | CNC(=O)[C@H]1O[C@@H](n2cnc3c(NCc4cccc(I)c4)ncnc32)[C@H](O)[C@@H]1O [IB-MECA] | belong to the same cluster | – | – | –
3 | Cc1nc2n(c(=O)c1CCN1CCC(c3noc4cc(F)ccc34)CC1)CCCC2 [risperidone] | – | specific node cluster that consists of 8 compounds | – | –
4 | O=C(NCCNCC(O)COc1ccc(O)cc1)N1CCOCC1 (centres unmarked) [xamoterol] | – | – | between the second and third group | –
5 | CN(C)CCCN1c2ccccc2Sc2ccc(Cl)cc21 [Chlorpromazine] | – | specific node cluster that consists of 8 compounds | – | –
6 | CNC[C@H](O)c1ccc(O)c(O)c1 [epinephrine] | – | – | full agonists and strong partial agonists | amplitudes of the DMR signal [3]: maximum amplitudes; kinetics for the P-DMR event [3]: slow kinetics; transition time of the DMR signal [3]: fast transition time; saturating concentration for the DMR signal [3]: 0.008 µM
7 | NC[C@H](O)c1ccc(O)c(O)c1 [norepinephrine] | – | – | full agonists and strong partial agonists | saturating concentration for the DMR signal [3]: 0.1 µM
8 | NCCc1ccc(O)c(O)c1 [dopamine] | – | – | partial agonists | saturating concentration for the DMR signal [3]: 32 µM
9 | CCNC(=O)[C@H]1O[C@@H](n2cnc3c(N)nc(NCCc4ccc(CCC(=O)O)cc4)nc32)[C@H](O)[C@@H]1O [CGS21680] | belong to the same cluster | – | – | –
10 | CC(C)NCC(O)COc1cccc2[nH]ccc12 (centres unmarked) [pindolol] | – | – | beta-blockers with weak partial agonism activity | –
11 | Nc1ncnc2c1ncn2[C@@H]1O[C@H](CO)[C@@H](O)[C@H]1O [adenosine] | belong to the same cluster | – | – | –
12 | CN1CCC(=C2c3ccccc3CC(=O)c3sccc32)CC1 [ketotifen] | – | specific node cluster that consists of 8 compounds | – | –
13 | Oc1ccccc1O [catechol] | – | – | between the second and third group | amplitudes of the DMR signal [3]: smaller amplitudes; kinetics for the P-DMR event [3]: faster kinetics; transition time of the DMR signal [3]: slightly slower transition time; saturating concentration for the DMR signal [3]: 500 µM
14 | Fc1ccc(C(c2ccc(F)cc2)N2CCN(C/C=C/c3ccccc3)CC2)cc1 [flunarizine] | – | specific node cluster that consists of 8 compounds | – | –
15 | CNCC(O)c1ccccc1 (centres unmarked) [halostachine] | – | – | partial agonists | amplitudes of the DMR signal [3]: smaller amplitudes; kinetics for the P-DMR event [3]: faster kinetics; transition time of the DMR signal [3]: slightly slower transition time
16 | O=c1cc(N2CCNCC2)oc2c(-c3ccccc3)cccc12 [LY303511] | – | can also be a histamine H1R or a H1R pathway antagonist | – | –
17 | C[C@@H]1CN([C@H]2CC[C@](C#N)(c3ccc(F)cc3)CC2)CC[C@]1(C(=O)O)c1ccccc1 [levocabastine] | – | specific node cluster that consists of 8 compounds | – | –
18 | Nc1ncnc2c1ncn2[C@@H]1O[C@H](COP(=O)(O)OP(=O)(O)OP(=O)(O)O)[C@@H](O)[C@H]1O [ATP] | belong to the same cluster | – | – | –
19 | OC[C@H]1O[C@@H](n2cnc3c(NC4CCCC4)nc(Cl)nc32)[C@H](O)[C@@H]1O [CCPA] | belong to the same cluster | – | – | –
